This experiment has as its system 786-0 complex spheroid viability. As to the kind of experiment: Anticancer human tumor 786-0 cell line growth inhibition.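 For all read-outs here: spheroids exposed to agents for seven days before readout.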 Particulars: for viability, T/C: stronger effect = lower value. The essentials: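 Complex spheroids of tumor cells with HUVEC and human MSCs, exposed to iadademstat combined with other agents. Each agent tested in half-log steps from near clinical Cmax (else 10 microM top), DMSO ≤0.25%.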

[1] abbreviates: curve of first compound, second compound 0.1 µM.
The mark [2] stands for this setting: curve of first compound, second compound 0.316 µM.
Where [3] appears, read: curve of first compound, second compound 1 µM.
The mark [4] stands for this setting: curve of first compound, second compound 3.16 µM.
Where [5] appears, read: curve of first compound, second compound 10 µM.
Where [6] appears, read: second compound 0.1 µM, first compound 0.0316 µM.
[7] abbreviates: second compound 0.1 µM, first compound 0.1 µM.
Setting [8] is: second compound 0.1 µM, first compound 0.316 µM.
The mark [9] stands for this setting: second compound 0.1 µM, first compound 1 µM.
Setting [10] is: second compound 0.316 µM, first compound 0.0316 µM.
The mark [11] stands for this setting: second compound 0.316 µM, first compound 0.1 µM.
Where [12] appears, read: second compound 0.316 µM, first compound 0.316 µM.
The mark [13] stands for this setting: second compound 0.316 µM, first compound 1 µM.
[14] abbreviates: second compound 1 µM, first compound 0.0316 µM.
The mark [15] stands for this setting: second compound 1 µM, first compound 0.1 µM.
Setting [16] is: second compound 1 µM, first compound 0.316 µM.
[17] abbreviates: second compound 1 µM, first compound 1 µM.
[18] abbreviates: second compound 3.16 µM, first compound 0.0316 µM.
Where [19] appears, read: second compound 3.16 µM, first compound 0.1 µM.
Setting [20] is: second compound 3.16 µM, first compound 0.316 µM.
Where [21] appears, read: second compound 3.16 µM, first compound 1 µM.
Setting [22] is: second compound 10 µM, first compound 0.0316 µM.
[23] abbreviates: second compound 10 µM, first compound 0.1 µM.
The mark [24] stands for this setting: second compound 10 µM, first compound 0.316 µM.
[25] abbreviates: second compound 10 µM, first compound 1 µM.

5 compounds from PubChem BioAssay AID1918944 (Molecular Pharmacology Branch, DTP, NCI, 2023) can be followed below.

“And” between values parts separate entries of the source, which are not always exact repeats. Equal entries are not always repeated.

As to `Nc1ccn(C2OC(CO)C(O)C2(F)F)c(=O)n1` (centres undefined) + NC1CCC(NC2CC2c2ccccc2)CC1, the IC50 – broadly, the midpoint of a concentration-inhibition curve – was less than 0.949 nM under setting [1]; less than 0.949 nM under setting [2]; less than 0.949 nM under setting [3]; less than 0.949 nM under setting [4]; less than 0.949 nM under setting [5]. Moreover, the viability, T/C (in general, the result in the treated group divided by that in the control group, in per cent) reads like this: (second compound 0.1 µM, first compound 0.000949 µM) 4.09%; (second compound 0.1 µM, first compound 0.003 µM) 2.17%; (second compound 0.1 µM, first compound 0.00949 µM) 2.51%; (second compound 0.1 µM, first compound 0.03 µM) 5.79%; (second compound 0.1 µM, first compound 0.0949 µM) 3.38%; (second compound 0.1 µM, first compound 0.3 µM) 3.63%. The viability, T/C (second compound 0.316 µM, first compound 0.000949 µM) was 4.14%; the viability, T/C (second compound 0.316 µM, first compound 0.003 µM) is 2.73%; the viability, T/C (second compound 0.316 µM, first compound 0.00949 µM) was 2.97%; the viability, T/C (second compound 0.316 µM, first compound 0.03 µM) is 3.95%; the viability, T/C (second compound 0.316 µM, first compound 0.0949 µM) was 3.04%; the viability, T/C (second compound 0.316 µM, first compound 0.3 µM) was 3.93%. For the same compound, the viability, T/C was 4.18% (second compound 1 µM, first compound 0.000949 µM); 4.49% (second compound 1 µM, first compound 0.003 µM); 3.51% (second compound 1 µM, first compound 0.00949 µM); 3.28% (second compound 1 µM, first compound 0.03 µM); 5.66% (second compound 1 µM, first compound 0.0949 µM); 4.13% (second compound 1 µM, first compound 0.3 µM). The viability, T/C by setting is: (second compound 3.16 µM, first compound 0.000949 µM) 5.7%; (second compound 3.16 µM, first compound 0.003 µM) 3.25%; (second compound 3.16 µM, first compound 0.00949 µM) 3.12%; (second compound 3.16 µM, first compound 0.03 µM) 3.88%; (second compound 3.16 µM, first compound 0.0949 µM) 3.97%; (second compound 3.16 µM, first compound 0.3 µM) 4.18%. Further, the viability, T/C was 4.1% (second compound 10 µM, first compound 0.000949 µM); 2.62% (second compound 10 µM, first compound 0.003 µM); 3% (second compound 10 µM, first compound 0.00949 µM); 3.34% (second compound 10 µM, first compound 0.03 µM); 2.68% (second compound 10 µM, first compound 0.0949 µM); 3.7% (second compound 10 µM, first compound 0.3 µM).
With `CC(C)c1c(-c2ccccc2)nc2c(C#N)c[nH]n2c1=O`, the viability, T/C (compound 0.0316 µM) is 105% and 103%; the viability, T/C (compound 0.1 µM) was 108% and 101%; the viability, T/C (compound 0.316 µM) is 99% and 105%; the viability, T/C (compound 1 µM) was 102% and 105%; the viability, T/C (compound 3.16 µM) is 104% and 110%; the viability, T/C (compound 10 µM) was 102% and 103%. Further, the IC50 (curve of compound) was greater than 10000 nM.
As for `O=C(C=Cn1cnc(-c2cc(C(F)(F)F)cc(C(F)(F)F)c2)n1)NNc1cnccn1`, the viability, T/C (compound 0.00316 µM) was 90.7% and 92.3%; the viability, T/C (compound 0.01 µM) is 61.1% and 63.3%; the viability, T/C (compound 0.0316 µM) was 39.5% and 47.2%; the viability, T/C (compound 0.1 µM) was 29% and 39.9%; the viability, T/C (compound 0.316 µM) was 20.6% and 32.5%; the viability, T/C (compound 1 µM) was 15.3% and 25.6%. In addition, for the setting “curve of compound”, the half-maximal inhibitory concentration (IC50) was 18.5 nM and 27.6 nM.
With `CC1COCCN1c1cc(C2(S(C)(=N)=O)CC2)nc(-c2ccnc3[nH]ccc23)n1` (centres undefined) + NC1CC1c1ccc(-c2cccc(O)c2)cc1, the 50% inhibitory concentration (IC50) amounted to 943 nM under setting [1]; 1020 nM under setting [2]; 933 nM under setting [3]; 819 nM under setting [4]; 751 nM under setting [5]. In addition, the viability, T/C was 99.5% under setting [6]; 107% under setting [7]; 89.1% under setting [8]; 47.4% under setting [9]; 22.8% (second compound 0.1 µM, first compound 3.16 µM); 14.4% (second compound 0.1 µM, first compound 10 µM). For the same compound, the viability, T/C runs as follows: under setting [10], 114%; under setting [11], 110%; under setting [12], 98.8%; under setting [13], 49.7%; (second compound 0.316 µM, first compound 3.16 µM) 22.7%; (second compound 0.316 µM, first compound 10 µM) 14.8%. In addition, the viability, T/C under setting [14] was 101%; the viability, T/C under setting [15] was 102%; the viability, T/C under setting [16] was 88%; the viability, T/C under setting [17] is 46.4%; the viability, T/C (second compound 1 µM, first compound 3.16 µM) is 22.9%; the viability, T/C (second compound 1 µM, first compound 10 µM) is 12.8%. Besides, the viability, T/C under setting [18] is 94.5%; the viability, T/C under setting [19] was 101%; the viability, T/C under setting [20] is 86%; the viability, T/C under setting [21] was 41.8%; the viability, T/C (second compound 3.16 µM, first compound 3.16 µM) was 22.9%; the viability, T/C (second compound 3.16 µM, first compound 10 µM) was 14.6%. The viability, T/C reads like this: under setting [22], 99%; under setting [23], 95.2%; under setting [24], 81.3%; under setting [25], 38.1%; (second compound 10 µM, first compound 3.16 µM) 25.6%; (second compound 10 µM, first compound 10 µM) 13.4%.
For the compound `Nc1ncn(C2CC(O)C(CO)O2)c(=O)n1` (centres undefined) + NC1CC1c1ccc(-c2cccc(O)c2)cc1, the IC50 was greater than 1000 nM under setting [1]; greater than 1000 nM under setting [2]; greater than 1000 nM under setting [3]; greater than 1000 nM under setting [4]; greater than 1000 nM under setting [5]. For the same compound, the viability, T/C runs as follows: (second compound 0.1 µM, first compound 0.00316 µM) 119%; (second compound 0.1 µM, first compound 0.01 µM) 122%; under setting [6], 107%; under setting [7], 97%; under setting [8], 99.1%; under setting [9], 78.4%. The viability, T/C was 125% (second compound 0.316 µM, first compound 0.00316 µM); 113% (second compound 0.316 µM, first compound 0.01 µM); 107% under setting [10]; 96.5% under setting [11]; 88.8% under setting [12]; 82.3% under setting [13]. Besides, the viability, T/C was 122% (second compound 1 µM, first compound 0.00316 µM); 119% (second compound 1 µM, first compound 0.01 µM); 107% under setting [14]; 96.1% under setting [15]; 90.9% under setting [16]; 82.5% under setting [17]. The viability, T/C reads like this: (second compound 3.16 µM, first compound 0.00316 µM) 113%; (second compound 3.16 µM, first compound 0.01 µM) 115%; under setting [18], 95.7%; under setting [19], 94.8%; under setting [20], 84%; under setting [21], 75.6%. The viability, T/C reads like this: (second compound 10 µM, first compound 0.00316 µM) 108%; (second compound 10 µM, first compound 0.01 µM) 102%; under setting [22], 97.1%; under setting [23], 93%; under setting [24], 78.3%; under setting [25], 72.9%.
